Measured values from patent US9746480B2, “Human myeloid derived suppressor cell cancer markers” (University of Southern California, priority 2011, dated 2017).
Entries after “also recorded” stand apart in the source; their conditions may differ.

Tests used:
CD33^+ MDSC [1] = assay: Reversal of suppressive function of tumor cell line-induced CD33+ MDSC by drugs; type: cell-based, human; settings: drug-treated CD33+ MDSC
CD11b^+ MDSC [2] = assay: Functional inhibition of tumor cell line-induced CD11b+ MDSC by drugs; settings: drug-treated CD11b+ MDSC
CD11b^+ MDSC [3] = assay: qRT-PCR gene expression in treated CD11b+ MDSC; type: cell-based, human; settings: treated vs untreated CD11b+ MDSC, mRNA
CD33^+ MDSC [4] = assay: qRT-PCR gene expression in treated CD33+ MDSC; type: cell-based, human; settings: treated vs untreated CD33+ MDSC, mRNA
CD33^+ MDSC [5] = assay: Suppression Assay in presence or absence of specific inhibitors of MDSC suppressive mechanisms; type: cell-based, human; settings: tumor cell line-induced CD33+ MDSC, CD3/CD28-stimulated autologous T cells, with inhibitor
Method: Further characterization of tumor-induced canonical CD33^+ MDSC subset by analysis of the expression of putative MDSC suppression genes was performed. For these studies, expression of putative suppression genes was measured in tumor cell line-induced MDSC, including those induced by SCCL-MT1 HNSCC cell line and those induced by 4-998 osteogenic sarcoma, DU 145 prostate carcinoma, CAKI-1 renal cell carcinoma, SK-OV-3 ovarian carcinoma, and SW 608 and SW 732 colorectal adenocarcinoma cell lines (FIG. 6A), and compared to expression levels in normal, non-suppressive CD33^+ myeloid cells from medium only cultures. […] To determine the dominant mechanism of T cell suppression by this canonical CD33^+ MDSC subset, suppression assays were repeated in the presence or absence of specific inhibitors of ARG-1 (nor-NOHA), iNOS (L-NMMA), NOX2 (apocynin), VEGF (neutralizing antibody Avastin), or TGFβ1 (SB431542 or neutralizing antibody 1D11).

Row | Molecule | CD33+ MDSC suppressive function (CD33^+ MDSC [1]) | CD11b+ MDSC suppressive function (CD11b^+ MDSC [2]) | C/EBPβ expression (CD11b^+ MDSC [3]) | HIF1α expression (CD11b^+ MDSC [3]) | STAT3 expression (CD11b^+ MDSC [3]) | HIF1α expression (CD33^+ MDSC [4]) | STAT3 expression (CD33^+ MDSC [4]) | suppression of T cell proliferation by CD33+ MDSC (CD33^+ MDSC [5]) | ARG-1 expression (CD11b^+ MDSC [3]) | NOX2-component NCF1 expression (CD11b^+ MDSC [3]) | iNOS expression (CD11b^+ MDSC [3]) | ARG-1 expression (CD33^+ MDSC [4]) | C/EBPβ expression (CD33^+ MDSC [4]) | NOX2-component NCF1 expression (CD33^+ MDSC [4]) | iNOS expression (CD33^+ MDSC [4])
1 | CC1=C(/C=C/C(C)=C/C=C/C(C)=C/C(=O)O)C(C)(C)CCC1 [ATRA] | Inhibition; also recorded: Reversal | Functional inhibition | decreased | no change | no change | decreased | decreased | – | – | – | – | – | – | – | –
2 | COc1cc(C(C)=O)ccc1O [apocynin] | – | – | – | – | – | – | – | statistically significant decreases in suppression | – | – | – | – | – | – | –
3 | N=C(NO)NCC[C@H](N)C(=O)O [nor-NOHA] | – | – | – | – | – | – | – | statistically significant decreases in suppression | – | – | – | – | – | – | –
4 | lipopolysaccharide | – | – | further up-regulation | further up-regulation | further up-regulation | further up-regulation | further up-regulation | – | increased expression | increased expression | increased expression | increased expression | further up-regulation | increased expression | increased expression
